Laboratory results as given in US20250129021A1, “SMALL MOLECULE PROTEIN SYNTHESIS MODULATORS” (Interdict Bio, Inc., priority 2023, published 2025).

Experiments:
Format in all cases: biochemical
Conditions in all cases: HeLa S3 lysate, sfGFP/mCherry ratio, 2 hrs at 30° C.
ALK = assay: In vitro transcription-translation (IVTT) assay, ALK reporter
From the text: (§1) All reporter constructs have been cloned into the pT7CFE1-CHis plasmid (ThermoFisher #88860) using Gibson assembly procedures (NEB #E2611L). The parental pT7CFE1-CHis plasmid contains an EMCV IRES at the 5′UTR for translation initiation, a multiple-cloning site (MCS) for gene insertion, an optional C-terminal His-epitope tag, and polyA sequence in the 3′UTR to regulate mRNA stability. All reporters are designed to be inserted at the MCS to include a red fluorescent protein (mCherry), P2A self-cleaving peptide which releases the preceding mCherry protein product, and a fusion open reading frame containing a 3×FLAG epitope, a peptide sequence of interest (TEST), and green fluorescent protein (sfGFP).
(§2) Construct Plasmid Preparation: All plasmids are isolated from MACH1 cells (ThermoFisher) grown overnight in ampicillin-containing luria broth, and purified using ZymoPure Express Plasmid Midiprep Kit (Zymo Research). Constructs are sequenced verified and diluted to a working concentration of 110 ng/μL.
(§3) HeLa S3 Lysate Preparation: HeLa S3 cell pellets are acquired from Ipracell/Ipratech (Belgium) and shipped as 4 mL frozen cell pellets on dry ice for storage at −80° C. until use. The procedure for lysate preparation is as follows. Prepare 1× Lysis Buffer, cold and stored on ice:
(§4) Each preparation takes 8 cell pellets (4 ml packed volume each, approximately 1.0×10^9 cells per pellet). Thaw cell pellets from −80° C. on ice for 90 mins. Lay pellets horizontally on top of the ice and rotate every 30 mins to ensure even thawing. Once thawed, add 4 mL of cold lysis buffer to each pellet, and using a serological pipet, gently pipet up and down to break up clumps. Incubate resuspended cells in ice for an additional 30 mins (plunged into ice). During 30 min incubation, rinse and RNase-zap (Ambion) glass dounces (use loose pestle “A”), gently dry and place on ice until needed. Prepare RNase-free Eppendorf tubes for spinning and for batch storage. Add batch labels to 1.5-1.7 mL RNase-free microcentrifuge tubes (labeling scheme below). Each batch will have an extra 1.5-1.7 mL RNase-free microcentrifuge tube for 40 μL of lysate, label the top of this tube (labeling scheme below). After 30 min incubation, transfer all 8 mL of cell pellet to dounce. Cell lysis is complete after douncing 100 times. Aliquot cell lysis into 1.5-1.7 mL temporary-microcentrifuge tubes. Place tubes in centrifuge with “fins” out, and spin at 1,200×g for 5 mins. After the first spin use a 1 mL pipet to resuspend each tube and repeat spin. This acts as an additional lysis step, is more vigorous and increases lysate yield. During second spin get liquid N2 and a fresh conical tube on ice. After spin is complete, transfer supernatant (lysate) from microcentrifuge tubes into the 50 mL conical tube and keep on ice. Repeat steps 10-14 for all other cell pellets until completed. Once all cell lysate has been transferred to the 50 mL conical tube pipet to mix so the solution is homogenous. Transfer 1 mL of lysate into batch-labeled microcentrifuge tubes and flash freeze in liquid nitrogen. Be sure to pipet up and down to mix throughout transfer step. Place all tubes in the […] for long-term storage.
(§5) In vitro transcription-translation assay setup: Each assay includes a master mix containing lysate and shared components, a 96-well plate containing compound titrations for testing, a 96-well DNA plate with reporter constructs to be tested, 96-well skirted PCR plates, and 96-well flat-bottom, black, fluorescent assay plates. […]

MYC = assay: In vitro transcription-translation (IVTT) assay, MYC reporter
Method in brief: (§6)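 Reporter: mCherry, P2A, then 3×FLAG-target peptide-sfGFP fusion, IRES-initiated; HeLa S3 lysate IVTT; cpd dilutions 30 μM−0.1 μM half-log in 100% DMSO (dilution-plate conc); DNA added last; 2 h, 30° C; PBS quench.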

KRAS G12D = assay: In vitro transcription-translation (IVTT) assay, KRAS G12D reporter
From the text: as §1, §2, §3, §4, §5

MCL-1 = assay: In vitro transcription-translation (IVTT) assay, MCL-1 reporter
Method in brief: as §6

CCND1 = assay: In vitro transcription-translation (IVTT) assay, CCND1 reporter
Method in brief: as §6

Structure (SMILES) | IC50 (ALK) | IC50 (MYC) | IC50 (KRAS G12D) | IC50 (MCL-1) | IC50 (CCND1)
COc1ccc(CC2NCC(O)C2OC(=O)NC2CC(N)C2)cc1 [V187681, (2R,3S,4S)-4-hydroxy-2-[(4-methoxyphenyl)methyl]pyrrolidin-3-yl N-[(1s,3s)-3-aminocyclobutyl]carbamate] | > 30 µM | > 30 µM | > 30 µM | – | –
COc1ccc(C[C@H]2NC[C@H](O)[C@H]2OC(=O)Nc2nnc(C)s2)cc1 [V187553, (2R,3S,4S)-4-hydroxy-2-[(4-methoxyphenyl)methyl]pyrrolidin-3-yl N-(5-methyl-1,3,4-thiadiazol-2-yl)carbamate; trifluoroacetic acid] | > 30 µM | > 30 µM | > 30 µM | – | –
COc1ccc(C[C@H]2NC[C@H](O)[C@H]2OC(=O)Nc2cc(C)[nH]n2)cc1 [V187658, (2R,3S,4S)-4-hydroxy-2-[(4-methoxyphenyl)methyl]pyrrolidin-3-yl N-(5-methyl-1H-pyrazol-3-yl)carbamate; trifluoroacetic acid] | > 30 µM | > 30 µM | > 30 µM | – | –
COc1ccc(C[C@H]2NC[C@H](O)[C@H]2OC(=O)NCC[C@H]2CN(CC3CC3)CCN2Cc2ccccc2)cc1 [V187344] | > 30 µM | > 30 µM | > 30 µM | – | –
COc1ccc(C[C@H]2NC[C@H](O)[C@H]2OC(=O)Nc2nnc(CO)s2)cc1 [V187598, (2R,3S,4S)-4-hydroxy-2-[(4-methoxyphenyl)methyl]pyrrolidin-3-yl N-[5-(hydroxymethyl)-1,3,4-thiadiazol-2-yl]carbamate; trifluoroacetic acid] | < 10 µM | – | < 10 µM | – | –
COCCN(CCNC(=O)O[C@@H]1[C@H](O)CN[C@H]1Cc1ccc(OC)cc1)CCOC [V187538, (2S,3S,4R)-4-hydroxy-2-[(4-methoxyphenyl)methyl]pyrrolidin-3-yl N-{2-[bis(2-methoxyethyl)amino]ethyl}carbamate; trifluoroacetic acid] | < 10 µM | 10 to 20 µM | > 30 µM | – | –
COc1ccc(C[C@H]2NC[C@H](O)[C@H]2OC(=O)NC2CC(F)(F)C2)cc1 [V187191, (2R,3S,4S)-4-hydroxy-2-[(4-methoxyphenyl)methyl]pyrrolidin-3-yl N-(3,3-difluorocyclobutyl)carbamate; trifluoroacetic acid] | < 10 µM | 20 to 30 µM | > 30 µM | – | –
CCC(=O)NNC(=O)O[C@@H]1[C@@H](O)CN[C@@H]1Cc1ccc(OC)cc1 [V187739, 1-{[(2R,3S,4S)-4-hydroxy-2-[(4-methoxyphenyl)methyl]pyrrolidin-3-yl]oxy}-N′-propanoylformohydrazide; trifluoroacetic acid] | < 10 µM | – | 10 to 20 µM | – | –
COc1ccc(C[C@H]2NC[C@H](O)[C@H]2OC(=O)NNCc2ccno2)cc1 [V187668, 1-{[(2R,3S,4S)-4-hydroxy-2-[(4-methoxyphenyl)methyl]pyrrolidin-3-yl]oxy}-N′-(1,2-oxazol-5-ylmethyl)formohydrazide; trifluoroacetic acid] | < 10 µM | – | 10 to 20 µM | – | –
COc1ccc(C[C@H]2NC[C@H](O)[C@H]2OC(=O)NC[C@@H]2CCCO2)cc1 [V187521, (2R,3S,4S)-4-hydroxy-2-[(4-methoxyphenyl)methyl]pyrrolidin-3-yl N-[(2S)-oxolan-2-ylmethyl]carbamate; trifluoroacetic acid] | – | < 10 µM | 10 to 20 µM | < 10 µM | < 10 µM

Second part, led by results:

IC50 (ALK) | IC50 (MYC) | IC50 (KRAS G12D) | Structure (SMILES) | IC50 (MCL-1) | IC50 (CCND1)
20 to 30 µM | > 30 µM | > 30 µM | COc1ccc(C[C@H]2NC[C@H](O)[C@H]2OC(=O)NCCN2CC3(CNC3)C2)cc1 [V187623, (2R,3S,4S)-4-hydroxy-2-[(4-methoxyphenyl)methyl]pyrrolidin-3-yl N-(2-{2,6-diazaspiro [3.3]heptan-2-yl}ethyl)carbamate] | – | –
< 10 µM | 10 to 20 µM | 20 to 30 µM | COc1ccc(C[C@H]2NC[C@H](O)[C@H]2OC(=O)NCCOCCN2C(=O)CNC2=O)cc1 [V187627] | – | –
> 30 µM | > 30 µM | > 30 µM | COc1ccc(C[C@H]2NC[C@H](O)[C@H]2OC(=O)NCCN2CCC3(CC(O)C3)C2)cc1 (stereo partly drawn) [V187642, (2R,3S,4S)-4-hydroxy-2-[(4-methoxyphenyl)methyl]pyrrolidin-3-yl N-(2-{2-hydroxy-6-azaspiro[3.4]octan-6-yl}ethyl)carbamate] | – | –
10 to 20 µM | > 30 µM | > 30 µM | COc1ccc(C[C@@H]2NC[C@@H](O)[C@H]2OC(=O)NCCN(Cc2c[nH]cn2)C(=O)C2CCC2)cc1 [V187540, (2S,3S,4R)-4-hydroxy-2-[(4-methoxyphenyl)methyl]pyrrolidin-3-yl N-{2-[1-cyclobutyl-N-(1H-imidazol-4-ylmethyl)formamido]ethyl}carbamate] | – | –
20 to 30 µM | > 30 µM | > 30 µM | COc1ccc(C[C@H]2NC[C@H](O)[C@H]2OC(=O)NCCN2C[C@@H](O)[C@H](NC(C)=O)C2)cc1 [V187578, (2R,3S,4S)-4-hydroxy-2-[(4-methoxyphenyl)methyl]pyrrolidin-3-yl N-{2-[(3R,4R)-3-acetamido-4-hydroxypyrrolidin-1-yl]ethyl}carbamate] | – | –
> 30 µM | > 30 µM | > 30 µM | COc1ccc(C[C@H]2NC[C@H](O)[C@H]2OC(=O)NCC[C@H]2CN(Cc3ccccc3)CCN2Cc2ccccc2)cc1 [V187315] | – | –
20 to 30 µM | – | > 30 µM | COc1ccc(C[C@H]2NC[C@H](O)[C@H]2OC(=O)NCCN2CCC3(C2)CC(F)(F)C3)cc1 [V187643, (2R,3S,4S)-4-hydroxy-2-[(4-methoxyphenyl)methyl]pyrrolidin-3-yl N-(2-{2,2-difluoro-6-azaspiro[3.4]octan-6-yl}ethyl)carbamate] | – | –
< 10 µM | < 10 µM | 10 to 20 µM | COc1ccc(C[C@H]2NC[C@H](O)[C@H]2OC(=O)NCCN2CCN(Cc3ccccc3)CC2)cc1 [V187465, (2R,3S,4S)-4-hydroxy-2-[(4-methoxyphenyl)methyl]pyrrolidin-3-yl N-[2-(4-benzylpiperazin-1-yl)ethyl]carbamate] | – | –
< 10 µM | < 10 µM | 20 to 30 µM | COc1ccc(CC2NCC(O)[C@H]2OC(=O)NCCN(Cc2ccccn2)Cc2ccccn2)cc1 (stereo in doubt) [V187537, (2S,3S,4R)-4-hydroxy-2-[(4-methoxyphenyl)methyl]pyrrolidin-3-yl N-{2-[bis(pyridin-2-ylmethyl)amino]ethyl}carbamate; trifluoroacetic acid] | – | –
> 30 µM | > 30 µM | > 30 µM | CCN(Cc1ccccc1)Cc1nnc(NC(=O)O[C@@H]2[C@@H](O)CN[C@@H]2Cc2ccc(OC)cc2)s1 [V187597, (2R,3S,4S)-4-hydroxy-2-[(4-methoxyphenyl)methyl]pyrrolidin-3-yl N-(5-{[benzyl(ethyl)amino]methyl}-1,3,4-thiadiazol-2-yl)carbamate] | – | –
< 10 µM | – | 10 to 20 µM | COc1ccc(C[C@H]2NC[C@H](O)[C@H]2OC(=O)NCCO)cc1 [V187584, (2R,3S,4S)-4-hydroxy-2-[(4-methoxyphenyl)methyl]pyrrolidin-3-yl N-(2-hydroxyethyl)carbamate] | – | –
< 10 µM | – | > 30 µM | COc1ccc(C[C@H]2NC[C@H](O)[C@H]2OC(=O)NCCOCCN(C)C)cc1 [V187383, (2R,3S,4S)-4-hydroxy-2-[(4-methoxyphenyl)methyl]pyrrolidin-3-yl N-{2-[2-(dimethylamino)ethoxy]ethyl}carbamate] | – | –
> 30 µM | – | > 30 µM | COc1ccc(C[C@H]2NC[C@H](O)[C@H]2OC(=O)Nc2ccccc2)cc1 [V187666, (2R,3S,4S)-4-hydroxy-2-[(4-methoxyphenyl)methyl]pyrrolidin-3-yl N-phenylcarbamate] | – | –
